The text below walks through data of patent US6796966B2, “Apparatus, and kits for preventing of alleviating vasoconstriction or vasospasm in a mammal” (priority 1997, dated 2004).

The conditions of data set [1]: in the presence of oxygen; cited from earlier work.
The next data set relates to basilar artery. As to the kind of experiment: Reversal of endothelin-1-induced cerebral vasoconstriction; suffusion of exposed basilar artery in sCSF, video microscopy. Format: in vivo, New Zealand White rabbits.
In another data set the test system is cerebral vasospasm. As to the kind of experiment: ITSNP therapy for alleviation and prevention of cerebral vasospasm after aneurysmal SAH, 16 patients. Format: in vivo, human. Conditions: pre-therapy administration.
The mark [2] stands for this setting: ET-1 100 nanomolar in sCSF, 1 milliliter per minute, Groups 4, 5, 6, n=38.

Bridges are numbered along the chain shown (N, C = ends). Where no end group is shown, it is not given here.

With `[N]=O` [NO, nitric oxide], the half-life in vivo entry in data set [1] is given as “measured in seconds”.

Turning to `O=[N+]([O-])OCC(CO[N+](=O)[O-])O[N+](=O)[O-]` [NTG, nitroglycerine], in the data set on basilar artery (rabbit, in vivo), the “change in baseline diameter of the basilar artery, substance alone” value was “did not produce changes”; the “reversal of ET-1-induced vasoconstriction” value is “rapid and pronounced vasodilation”.

Turning to `Cc1nccn1CC1CCc2c(c3ccccc3n2C)C1=O` (stereo not drawn) [ondansetron], the “effect on nausea associated with ITSNP therapy” value in the data set with cerebral vasospasm is “abolished”.

As for “Endothelin-1 (CSCSSLMDKECVYFCHLDIIW; disulfide 1-15, 3-11; ends not checked; UniProt P05305 53-73, looked up) [ET-1]”, in the data set with basilar artery (setting [2]), the “reduction of arterial diameter began, after starting the delivery” value is 5 to 8 min and the “reduction of arterial diameter complete within” value is 20 to 30 min. Also, in the data set with basilar artery (ET-1 100 nanomolar suffusion), the “average minimal diameter, % of baseline diameter” value is 50.4%. For the same compound, the “average minimal diameter of the artery” value in the data set on basilar artery (ET-1 100 nanomolar suffusion, baseline 992 microns) amounted to 500 microns. Moreover, the “return to baseline diameter after ET-1 when followed by sCSF alone” value with basilar artery (Group 4, n=15) was above 30 min.
